Our source for the proteoliposome radioligand uptake values is publication PMC7346717 (Nature structural & molecular biology, 2018).

Molecules are shown by their SMILES.

Assay [1] deals with T1, ΔN-drSLC38A9 (ΔN-SLC38A9) (Danio rerio, UniProt Q08BA4, N227Q/N235Q/N252Q/N263Q).
T1 sequence (Q08BA4 71-549 N227Q/N235Q/N252Q/N263Q): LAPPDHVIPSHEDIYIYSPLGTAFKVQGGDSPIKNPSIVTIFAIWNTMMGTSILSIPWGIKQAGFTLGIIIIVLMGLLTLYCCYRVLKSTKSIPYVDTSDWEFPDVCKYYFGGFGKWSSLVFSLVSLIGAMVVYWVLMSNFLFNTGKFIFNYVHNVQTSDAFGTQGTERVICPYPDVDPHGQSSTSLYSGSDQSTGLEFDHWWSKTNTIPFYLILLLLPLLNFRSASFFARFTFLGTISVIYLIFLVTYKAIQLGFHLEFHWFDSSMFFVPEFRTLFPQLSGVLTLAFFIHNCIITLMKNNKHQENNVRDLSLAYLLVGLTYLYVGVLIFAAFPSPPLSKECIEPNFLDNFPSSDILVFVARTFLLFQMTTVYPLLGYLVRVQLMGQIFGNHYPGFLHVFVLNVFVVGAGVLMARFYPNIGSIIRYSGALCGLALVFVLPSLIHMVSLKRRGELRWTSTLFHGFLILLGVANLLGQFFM
The experiment in a line: proteoliposome radioligand uptake. The assay is classed as biochemical. To be noted: 0.5 μM [3H]L-arginine, labelled compound; NaCl, MES pH 5.0.

Assay [2] deals with T2, drSLC38A9 (full-length, wild-type) (Danio rerio, UniProt Q08BA4).
T2 sequence (Q08BA4 1-549): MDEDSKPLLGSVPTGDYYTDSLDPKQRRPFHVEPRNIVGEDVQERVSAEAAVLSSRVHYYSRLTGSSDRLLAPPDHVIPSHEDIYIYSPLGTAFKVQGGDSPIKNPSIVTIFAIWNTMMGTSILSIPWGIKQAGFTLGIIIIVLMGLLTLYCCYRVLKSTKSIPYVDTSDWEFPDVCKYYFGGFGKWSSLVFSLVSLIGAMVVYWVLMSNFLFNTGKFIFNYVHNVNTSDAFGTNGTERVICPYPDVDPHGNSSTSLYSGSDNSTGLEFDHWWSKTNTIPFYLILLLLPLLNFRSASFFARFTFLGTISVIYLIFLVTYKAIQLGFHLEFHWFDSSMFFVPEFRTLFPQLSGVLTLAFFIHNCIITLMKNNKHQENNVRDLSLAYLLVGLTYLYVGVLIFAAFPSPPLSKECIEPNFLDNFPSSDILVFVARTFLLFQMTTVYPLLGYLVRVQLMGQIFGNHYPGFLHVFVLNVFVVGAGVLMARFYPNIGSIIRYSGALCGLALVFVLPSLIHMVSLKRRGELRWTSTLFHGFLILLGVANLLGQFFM
The experiment in a line: proteoliposome radioligand uptake. To be noted: 0.5 μM [3H]L-arginine, labelled compound; Na+ (not K+ or NMG), pH 5.0. The assay is classed as biochemical.

Consider `N=C(N)NCCC[C@H](N)C(=O)O` [arginine], for which the proteoliposome radioligand uptake entry in assay [1] was “the truncated drSLC38A9 protein is active and able to bind arginine similarly to the wild-type”; in assay [2], “robust uptake was observed in the presence of sodium”.
